Assay results: the NIST ThermoML archive (doi:10.1021/acs.jced.8b00427)

Conditions: Liquid, Frequency=4 MHz, Pulse-echo method

FC(F)(F)/C=C/Cl [(E)-1-chloro-3,3,3-trifluoroprop-1-ene]
Conditions	speed of sound [m/s]
273.14 K, 30070 kPa	936.9
273.15 K, 5030 kPa	815.43
273.15 K, 20150 kPa	892.92
273.15 K, 25090 kPa	915.36
273.16 K, 190 kPa	786.78
273.16 K, 1000 kPa	791.78
273.16 K, 10050 kPa	842.75
273.16 K, 35030 kPa	957.33
283.14 K, 5170 kPa	778.28
283.14 K, 10020 kPa	806.46
283.14 K, 24930 kPa	882.24
283.14 K, 30260 kPa	906.25
283.15 K, 190 kPa	746.74
283.16 K, 980 kPa	752.01
283.16 K, 20000 kPa	858.64
283.16 K, 34920 kPa	926.3
293.15 K, 170 kPa	707.09
293.15 K, 9990 kPa	771.05
293.15 K, 20000 kPa	826.3
293.15 K, 35000 kPa	896.92
293.16 K, 1030 kPa	713.25
293.16 K, 5090 kPa	740.63
293.16 K, 30100 kPa	875.12
313.14 K, 270 kPa	628.5
313.15 K, 5010 kPa	666.72
313.15 K, 10000 kPa	702.15
313.15 K, 19990 kPa	763.58
313.15 K, 30050 kPa	816.73
313.15 K, 34920 kPa	840.09
313.16 K, 1180 kPa	636.05
333.14 K, 5010 kPa	594.52
333.14 K, 9980 kPa	634.9
333.15 K, 19990 kPa	704.25
333.15 K, 29970 kPa	761.64
333.15 K, 35060 kPa	787.99
353.14 K, 10010 kPa	571.03
353.14 K, 15090 kPa	612.03
353.14 K, 20150 kPa	648.34
353.15 K, 24990 kPa	679.91
353.15 K, 30000 kPa	710.32
353.15 K, 35040 kPa	738.23
